Laboratory results taken from patent US9914730B2, “Azaquinazoline inhibitors of Atypical protein Kinase C” (Ignyta, Inc., priority 2012, dated 2018).

Biological target: T1, full-length human PKCι (Homo sapiens, UniProt P41743)
T1 construct: Recombinant, full-length human PKCι expressed in Sf21 insect cells is also commercially available; purchased; host or cells: Sf21 insect cells
T1 sequence (P41743 1-596): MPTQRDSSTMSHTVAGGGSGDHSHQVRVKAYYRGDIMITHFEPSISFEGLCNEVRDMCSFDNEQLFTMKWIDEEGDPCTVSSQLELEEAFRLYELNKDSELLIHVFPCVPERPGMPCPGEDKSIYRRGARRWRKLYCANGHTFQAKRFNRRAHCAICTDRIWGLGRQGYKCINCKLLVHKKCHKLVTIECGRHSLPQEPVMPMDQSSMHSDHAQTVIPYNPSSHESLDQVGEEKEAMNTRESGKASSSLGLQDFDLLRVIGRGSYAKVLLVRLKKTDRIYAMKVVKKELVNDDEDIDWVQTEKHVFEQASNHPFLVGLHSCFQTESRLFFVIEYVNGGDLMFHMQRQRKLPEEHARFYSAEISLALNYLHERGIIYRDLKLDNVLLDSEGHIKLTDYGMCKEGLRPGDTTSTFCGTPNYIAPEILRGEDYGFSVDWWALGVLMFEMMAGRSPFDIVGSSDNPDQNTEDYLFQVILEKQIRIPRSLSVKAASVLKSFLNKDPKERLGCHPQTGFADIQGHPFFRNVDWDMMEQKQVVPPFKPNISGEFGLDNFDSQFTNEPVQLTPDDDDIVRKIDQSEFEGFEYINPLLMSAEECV
Assay: PKCι IC50 IMAP assay, full-length PKCι at 150 μM ATP
Type: biochemical
Conditions: read-out: IC50 in IMAP assay against full length PKCi at 150 μM ATP
Method in brief: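 IC50 from IMAP FP (ex 485/em 530 nm) after 60 min room-temperature reaction in pH 7.5 tris buffer with 9 mM MgCl2 and 0.9 mM DTT. Enzyme: full-length Sf21-expressed PKCι (~15 pM); ATP 150 μM, five times KM^APP; FAM-labelled peptide 100 nM; DMSO 4%.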

Compound | IC50
c1cc2c(N[C@@H]3CCNC3)nc(-c3ccnc(Nc4ccc(Cn5ccnc5)cc4)c3)nc2cn1 [Example 322, {2-[2-(4-Imidazol-1-ylmethyl-phenylamino)-pyridin-4-yl]-pyrido[3,4-d]pyrimidin-4-yl}-(R)-pyrrolidin-3-yl-amine] | 100 to 1000 nM
c1cc(-c2nc(N3CCNCC3)c3c(C4CC4)cncc3n2)cc(NCC2CC2)n1 [Example 629, Cyclopropyl-methyl-[4-(5-cyclopropyl - 4-piperazin-1-yl-pyrido[3,4-d]pyrimidin-2-yl)-pyridin-2-yl]-amine] | < 100 nM
CN(CC1CCNCC1)c1nc(-c2ccnc3[nH]c(C(F)(F)F)cc23)nc2cncc(C3CC3)c12 [Example 2139, [5-Cyclopropyl-2-(2-trilfuoromethyl-1H-pyrrolo[2,3-b]pyridin-4-yl)-pyrido[3,4-d]pyrimidin-4-yl]-methyl-piperidin-4-ylmethyl-amine] | < 100 nM
N[C@H](CNc1nc(-c2ccncc2)nc2c(-c3ccccc3O)nccc12)Cc1ccccc1 [Example 105, 2-(4-{[(2S)-2-amino-3-phenylpropyl]-amino}-2-(pyridin-4-yl)-pyrido[3,4-d]-pyrimidin-8-yl)phenol] | < 100 nM
O[C@H](CNc1nc(-c2ccncc2)nc2cnccc12)Cc1ccccc1 [Example 15, (2S)-1-phenyl-3-{[2-(pyridin-4-yl)pyrido[3,4-d]-pyrimidin-4-yl]-amino}propan-2-ol] | 1000 to 10000 nM
FC(F)(F)c1cc2c(-c3nc(N4CCNCC4)c4c(C5CC5)cncc4n3)ccnc2[nH]1 [Example 1212] | < 100 nM
CN1CCN(c2cccc(Nc3cc(-c4nc(N5CC[C@@H](O)C5)c5c(C6CC6)cncc5n4)ccn3)c2)CC1 [Example 738, (R)-1-(5-Cyclopropyl-2-{2-[3-(4-methyl-piperazin-1-yl)-phenylamino]-pyridin-4-yl}-pyrido[3,4-d]pyrimidin-4-yl)-pyrrolidin-3-ol] | < 100 nM
c1ccc2c(Nc3cc(-c4nc(N5CCNCC5)c5c(C6CC6)cncc5n4)ccn3)nccc2c1 [Example 2089, [4-(5-Cyclopropyl-4-piperazin-1-yl-pyrido[3,4-d]pyrimidin-2-yl)-pyridin-2-yl]-iso[D4],[D3]uinolin-1-yl-amine] | < 100 nM
Cn1nccc1-c1nccc2c(NC[C@@H](N)Cc3ccccc3)nc(-c3ccncc3)nc12 [Example 104, N-[(2S)-2-amino-3-phenylpropyl]-8-(1-methyl-1H-pyrazol-5-yl)-2-(pyridin-4-yl)-pyrido[3,4-d]-pyrimidin-4-amine] | 1000 to 10000 nM
FC[C@H]1CN(c2nc(-c3ccnc(Nc4cccnc4F)c3)nc3cncc(C4CC4)c23)CCN1 [Example 531, {4-[5-Cyclopropyl-4-((R)-3-fluoromethyl-piperazin-1-yl)-pyrido[3,4-d]-pyrimidin-2-yl]-pyridin-2-yl}-(2-fluoro-pyridin-3-yl)-amine] | < 100 nM
N[C@H](CNc1nc(-c2ccncc2)nc2c(Cl)nccc12)Cc1ccccc1 [Example 11, N-[(2S)-2-amino-3-phenylpropyl]-8-chloro-2-(pyridin-4-yl)pyrido[3,4-d]-pyrimidin-4-amine] | < 100 nM
CC(C)Cn1cc(-c2nccc3c(NC[C@@H](N)Cc4ccccc4)nc(-c4ccncc4)nc23)cn1 [Example 101, N-[(2S)-2-amino-3-phenylpropyl]-8-[1-(2-methyl-propyl)-1H-pyrazol-4-yl]-2-(pyridin-4-yl)-pyrido[3,4-d]-pyrimidin-4-amine] | 1000 to 10000 nM
O=C(Cc1ccccc1)Nc1cc(-c2nc(N[C@@H]3CCNC3)c3ccncc3n2)ccn1 [Example 334, 2-Phenyl-N-{4-[4-((R)-pyrrolidin-3-ylamino)-pyrido[3,4-d]pyrimidin-2-yl]-pyridin-2-yl}-acetamide] | 1000 to 10000 nM
N[C@@H](CNc1nc(-c2ccncc2)nc2c(Nc3ccccc3)nccc12)Cc1ccccc1 [Example 123, N^4-((R)-2-Amino-3-phenyl-propyl)-N^8-phenyl-2-pyridin-4-yl-pyrido[3,4-d]pyrimidine-4,8-diamine] | 1000 to 10000 nM
COc1cncc2nc(-c3ccnc(Nc4ccccc4)c3)nc(N3CCC(O)C(O)C3)c12 (single isomer, unassigned) [Example 463, (3R,4S)-1-[5-Methoxy-2-(2-phenylamino-pyridin-4-yl)-pyrido[3,4-d]pyrimidin-4-yl]-piperidine-3,4-diol or (3S,4R)-1-[5-Methoxy-2-(2-phenylamino-pyridin-4-yl)-pyrido[3,4-d]pyrimidin-4-yl]-piperidine-3,4-diol] | 1000 to 10000 nM
CC(C)NC(=O)C1CCN(c2nc(-c3ccnc(NC4CCCCC4)c3)nc3cncc(C4CC4)c23)CC1 [Example 674, 1-[2-(2-Cyclohexylamino-pyridin-4-yl)-5-cyclopropyl-pyrido[3,4-d]pyrimidin-4-yl]-piperidine-4-carboxylicacid isopropylamide] | 1000 to 10000 nM
CS(=O)(=O)C[C@H]1CN(c2nc(-c3ccnc(Nc4c(F)cccc4F)c3)nc3cncc(C4CC4)c23)CCN1 [Example 772, {4-[5-Cyclopropyl-4-((R)-3-methanesulfonyl-methyl-piperazin-1-yl)-pyrido[3,4-d]pyrimidin-2-yl]-pyridin-2-yl}-(2,6-difluoro-phenyl)-amine] | 100 to 1000 nM
Fc1cccc(F)c1Nc1cc(-c2nc(N3CCNCC3)c3c(C4CCC4)cncc3n2)ccn1 [Example 620, [4-(5-Cyclobutyl-4-piperazin-1-yl-pyrido[3,4-d]pyrimidin-2-yl)-pyridin-2-yl]-(2,6-difluoro-phenyl)-amine] | < 100 nM

Results, then the compound that gave them:

IC50 | Compound
< 100 nM | Fc1cc(F)c(Nc2cc(-c3nc(N4CCNCC4)c4c(C5CC5)cncc4n3)ccn2)cn1 [Example 748, [4-(5-Cyclopropyl-4-piperazin-1-yl-pyrido[3,4-d]pyrimidin-2-yl)-pyridin-2-yl]-(4,6-difluoro-pyridin-3-yl)-amine]
1000 to 10000 nM | FC(F)(F)c1ncccc1Nc1cc(-c2nc(N3CCNCC3)c3c(C4CC4)cncc3n2)ccn1 [Example 536, [4-(5-Cyclopropyl-4-piperazin-1-yl-pyrido[3,4-d]pyrimidin-2-yl)-pyridin-2-yl]-(2-trifluoromethyl-pyridin-3-yl)-amine]
1000 to 10000 nM | COc1cncc2nc(-c3ccnc(Nc4ccccc4)c3)nc(N3CCNC(=O)C3)c12 [Example 438, 4-[5-Methoxy-2-(2-phenylamino-pyridin-4-yl)-pyrido[3,4-d]pyrimidin-4-yl]-piperazin-2-one]
< 100 nM | Fc1ccccc1Nc1cc(-c2nc(N3CCNCC3)c3c(Nc4ccccc4F)cncc3n2)ccn1 [Example 248, (2-Fluoro-phenyl)-{2-[2-(2-fluoro-phenylamino)-pyridin-4-yl]-4-piperazin-1-yl-pyrido[3,4-d]pyrimidin-5-yl}-amine]
1000 to 10000 nM | COc1cncc2nc(-c3ccncc3)nc(N3CCN[C@H](C)C3)c12 [Example 52, (3R)-1-[5-methoxy-2-(pyridin-4-yl)-pyrido[3,4-d]-pyrimidin-4-yl]-3-methylpiperazine]
100 to 1000 nM | N-[(2S)-2-amino- 3-phenylpropyl]- 8-(furan-3-yl)-2- (pyridin-4-yl)- pyrido[3,4-d]- pyrimidin-4- amine [Example 113]
10000 to 40000 nM | CC(F)(F)C1CN(c2nc(-c3ccnc(Nc4ccccc4)c3)nc3cncc(C4CC4)c23)CCN1 (stereo not drawn) [Example 278, (4-{5-Cyclopropyl-4-[3-(1,1-difluoro-ethyl)-piperazin-1-yl]-pyrido[3,4-d]pyrimidin-2-yl}-pyridin-2-yl)-phenyl-amine]
< 100 nM | COc1cncc(Nc2cc(-c3nc(N4CCNCC4)c4c(OC)cncc4n3)ccn2)c1 [Example 424, [4-(5-Methoxy-4-piperazin-1-yl-pyrido[3,4-d]pyrimidin-2-yl)-pyridin-2-yl]-(5-methoxy-pyridin-3-yl)-amine]
1000 to 10000 nM | COc1cncc2nc(N3CCOCC3)nc(N3CCC[C@H](Nc4ccccc4)C3)c12 [Example 1007, [(S)-1-(5-Methoxy-2-morpholin-4-yl-pyrido[3,4-d]pyrimidin-4-yl)-piperidin-3-yl]-phenyl-amine]
< 100 nM | O=C(CC(F)(F)F)Nc1cc(-c2nc(N3CCNCC3)c3c(C4CC4)cncc3n2)ccn1 [Example 613, N-[4-(5-Cyclopropyl-4-piperazin-1-yl-pyrido[3,4-d]pyrimidin-2-yl)-pyridin-2-yl]-3,3,3-trifluoro-propionamide]
< 100 nM | c1ccc(C2(c3cc4c(-c5nc(N6CCNCC6)c6c(C7CC7)cncc6n5)ccnc4[nH]3)CCC2)cc1 [Example 2064, 5-Cyclopropyl-2-[2-(1-phenyl-cyclobutyl)-1H-pyrrolo[2,3-b]pyridin-4-yl]-4-piperazin-1-yl-pyrido[3,4-d]pyrimidine]
< 100 nM | CN1CCN(c2cccc(Nc3cc(-c4nc(N5CCC(O)(O)C(F)(F)C5)c5c(C6CC6)cncc5n4)ccn3)c2)CC1 [Example 747, 1-(5-Cyclopropyl-2-{2-[3-(4-methyl-piperazin-1-yl)-phenylamino]-pyridin-4-yl}-pyrido[3,4-d]pyrimidin-4-yl)-3,3-difluoro-piperidine-4,4-diol]
